Columns and labels:
Type in all cases: in vivo
[1] = test system: giant foxtail (Setaria faberii); test: Test A postemergence; settings: Setaria faberi, post-emergence, 240 h, 125 g ai/ha, Postemergence; visual injury after approximately 10 d; 0 to 100 scale where 0 is no effect and 100 is complete control; read-out: Plant response rating, Foxtail, Giant
Method in brief: (§1)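 Preemergence soil spray on seeded pots or post-emergence spray on 1–2 leaf plants, in loam–sand blend. Greenhouse ~10 d. Visual rating 0–100 against untreated plants.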

[2] = test system: barnyardgrass (Echinochloa crus-galli); test: Test A postemergence; settings: Echinochloa crus-galli, post-emergence, 240 h, 125 g ai/ha, Postemergence; visual injury after approximately 10 d; 0 to 100 scale where 0 is no effect and 100 is complete control; read-out: Plant response rating, Barnyardgrass
Method in brief: as §1

[3] = test system: pigweed (Amaranthus retroflexus); test: Test A postemergence; settings: Amaranthus retroflexus, post-emergence, 240 h, 125 g ai/ha, Postemergence; visual injury after approximately 10 d; 0 to 100 scale where 0 is no effect and 100 is complete control; read-out: Plant response rating, Pigweed
Method in brief: as §1

[4] = test system: blackgrass (Alopecurus myosuroides); test: Test A postemergence; settings: Alopecurus myosuroides, post-emergence, 240 h, 125 g ai/ha, Postemergence; visual injury after approximately 10 d; 0 to 100 scale where 0 is no effect and 100 is complete control; read-out: Plant response rating, Blackgrass
Method in brief: as §1

[5] = test system: wheat (Triticum aestivum); test: Test A postemergence; settings: Triticum aestivum, post-emergence, 240 h, 125 g ai/ha, Postemergence; visual injury after approximately 10 d; 0 to 100 scale where 0 is no effect and 100 is complete control; read-out: Plant response rating, Wheat
Method in brief: as §1

[6] = test system: ragweed (common ragweed, Ambrosia elatior); test: Test A postemergence; settings: Ambrosia artemisiifolia, post-emergence, 240 h, 125 g ai/ha, Postemergence; visual injury after approximately 10 d; 0 to 100 scale where 0 is no effect and 100 is complete control; read-out: Plant response rating, Ragweed
Method in brief: as §1

[7] = test system: Galium (catchweed bedstraw, Galium aparine); test: Test A postemergence; settings: Galium, post-emergence, 240 h, 125 g ai/ha, Postemergence; visual injury after approximately 10 d; 0 to 100 scale where 0 is no effect and 100 is complete control; read-out: Plant response rating, Galium
Method in brief: as §1

[8] = test system: corn (Zea mays); test: Test A postemergence; settings: Zea mays, post-emergence, 240 h, 125 g ai/ha, Postemergence; visual injury after approximately 10 d; 0 to 100 scale where 0 is no effect and 100 is complete control
Method in brief: as §1

[9] = test system: Kochia (Kochia scoparia); test: Test A postemergence; settings: Bassia scoparia, post-emergence, 240 h, 125 g ai/ha, Postemergence; visual injury after approximately 10 d; 0 to 100 scale where 0 is no effect and 100 is complete control; read-out: Plant response rating, Kochia
Method in brief: as §1

[10] = test system: ryegrass, Italian (Italian ryegrass, Lolium multiflorum); test: Test A postemergence; settings: Lolium multiflorum, post-emergence, 240 h, 125 g ai/ha, Postemergence; visual injury after approximately 10 d; 0 to 100 scale where 0 is no effect and 100 is complete control; read-out: Plant response rating, Ryegrass, Italian
Method in brief: as §1

[11] = test system: barnyardgrass (Echinochloa crus-galli); test: Test B flooded paddy test; settings: Echinochloa crus-galli, Flood, 250 g ai/ha; scale of 0 to 100 where 0 is no effect and 100 is complete control; read-out: Barnyardgrass plant response rating
Method in brief: (§2)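 Percent control, visually estimated after 13–15 d in the greenhouse on a 0–100 basis, compares treated pots with untreated ones; compound was put into paddy water 3 cm above the soil when plants had two leaves.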

[12] = test system: rice (Oryra sativa); test: Test B flooded paddy test; settings: Oryza sativa, Flood, 250 g ai/ha; scale of 0 to 100 where 0 is no effect and 100 is complete control; read-out: Rice plant response rating
Method in brief: as §2

[13] = test system: sedge, umbrella (small-flower umbrella sedge, Cyperus difformis); test: Test B flooded paddy test; settings: Cyperus difformis, Flood, 250 g ai/ha; scale of 0 to 100 where 0 is no effect and 100 is complete control; read-out: Sedge, Umbrella plant response rating
Method in brief: as §2

[14] = test system: ducksalad (Heteranthera limosa); test: Test B flooded paddy test; settings: Heteranthera limosa, Flood, 250 g ai/ha; scale of 0 to 100 where 0 is no effect and 100 is complete control; read-out: Ducksalad plant response rating
Method in brief: as §2

[15] = test system: barnyardgrass (Echinochloa crus-galli); test: Test A preemergence; settings: Echinochloa crus-galli, pre-emergence, 240 h, preemergence, read-out: Barnyardgrass plant response rating; for pest or weed control at 125 g/ha: 125 g ai/ha, 0 to 100 scale where 0 is no effect and 100 is complete control; for pest or weed control at 500 g/ha: 500 g ai/ha, visual injury rating about 10 d after treatment, 0 to 100 scale (0 no effect, 100 complete control)
Method in brief: as §1

| Compound | pest or weed control at 125 g/ha [1] | pest or weed control at 125 g/ha [2] | pest or weed control at 125 g/ha [3] | pest or weed control at 125 g/ha [4] | plant injury at 125 g/ha [5] | pest or weed control at 125 g/ha [6] | pest or weed control at 125 g/ha [7] | Corn plant response rating (crop injury, 0 = no effect, 100 = complete kill) at 125 g/ha [8] | pest or weed control at 125 g/ha [9] | pest or weed control at 125 g/ha [10] | pest or weed control at 250 g/ha [11] | pest or weed control at 250 g/ha [12] | pest or weed control at 250 g/ha [13] | pest or weed control at 250 g/ha [14] | pest or weed control at 125 g/ha [15] | pest or weed control at 500 g/ha [15] |
| --- | --- | --- | --- | --- | --- | --- | --- | --- | --- | --- | --- | --- | --- | --- | --- | --- |
| Cc1cc([C@H]2CN(C)C(=O)[C@@H]2C(=O)Nc2cccc(F)c2F)ccc1Cl [Compound 929] | 90% | 90% | 20% | 40% | 30% | 20% | 50% | 40% | 40% | 50% | 40% | 0% | 0% | 60% | 90% | 90% |
| Cc1cc([C@H]2CN(C)C(=O)[C@@H]2C(=O)Nc2ccc(F)c(F)c2F)ccc1Cl [Compound 931] | 90% | 80% | 20% | 20% | 30% | 0% | 40% | 70% | 30% | 30% | 65% | 0% | 0% | 60% | 90% | 90% |
| Cc1cc([C@H]2CN(C)C(=O)[C@@H]2C(=O)Nc2ccccc2C(F)(F)F)ccc1Cl [Compound 932] | 90% | 90% | 40% | 40% | 30% | 0% | 40% | 20% | 30% | 30% | 0% | 0% | 0% | 30% | 90% | 90% |
| C=CCOc1cccc(C2CN(C)C(=O)C2C(=O)Nc2cccc(F)c2F)c1 (centres unmarked) [Compound 933] | 90% | 90% | 0% | 20% | 20% | 0% | 50% | 40% | 50% | 40% | 60% | 0% | 0% | 60% | 90% | 100% |
| CN1C[C@H](c2ccc(C(F)(F)F)cc2)[C@@H](C(=O)Nc2cccc(F)c2Br)C1=O [Compound 937] | 90% | 70% | 60% | 30% | 20% | 20% | 70% | 20% | 30% | 20% | 0% | 0% | 0% | 45% | 90% | 90% |

Source: patent US12077503B2, “Substituted cyclic amides and their use as herbicides” (FMC CORPORATION, priority 2015, dated 2024)
